Reference: patent US9751840B2, “R-7-(3-aminomethyl-4-methoxyimino-3-methyl-pyrrolidin-1-yl)-1-cyclopropyl-6-fluoro-4-oxo-acid and L-aspartic acid salt, process for the preparation thereof and pharmaceutical composition comprising the same for antimicrobial” (ARIBIO CO. LTD., priority 2009, dated 2017)
Like-named read-outs stand apart in the source and are kept apart here.

Legend:
[1] = tested on: polychromatic erythrocyte with one or more nuclei (MNPCE); assay: In vivo genotoxicity, micronucleus test; conditions: male mice, intraperitoneal, 7.5 mg/kg
Source text: The following study performed to obtain in vivo genotoxicities, micronucleus test of L-aspartate and hydrochloric acid salt in male mice to the following procedure.

[2] = Solubility test; type: physicochemical; conditions: room temperature, water
[3] = tested on: Male ICR mice; assay: Single dose toxicity in mice (LD50); conditions: single intraperitoneal dose, observed 14 days
Protocol: The following experiment was performed in order to observe the degree of toxicity of the L-aspartate according to the present invention.
Male ICR mice were used as experimental animals. 5 male ICR mice were divided into 6 dose groups, respectively and fasted except for water for 24 hours.

[4] = In vivo tissue distribution test; design: species or system ICR mice; conditions: ICR, mouse, spleen, po, 100 mg/kg; read-out: P ratio Spleen
[5] = In vivo pharmacokinetic test; design: species or system SD rats; conditions: rats; for AUC(0-t) / Cmax / Tmax: SD, rat, plasma
Source text: The L-aspartate and hydrochloride according to the present invention were orally or intravenously administered to SD rats, respectively and blood samples were collected at a predetermined time to compare in vivo pharmacokinetics.
Then, Cmax: maximum drug concentration, Tmax: maximum drug concentration time, T1/2: drug half-life, AUCO-t: area under the plasma concentration-time curve from time zero to t hours, and AUCO-inf: area under the plasma concentration-time curve from time zero to infinity.

[6] = In vivo tissue distribution test; design: species or system ICR mice; conditions: mouse, po; for Kp: ICR, 100 mg/kg
Protocol: An in vivo tissue distribution test was performed in order to confirm the degree of drug distribution of the L-aspartate and hydrochloride according to the present invention in each organ. After 8-week-old ICR mice were purchased and adapted in the laboratory, each salt was orally administered to the mouse at a dose of 100 mg/kg. The mice were bled and sacrificed at a predetermined time and each organ was drawn to measure the concentration in each organ. After the administration of hydrochloride and L-aspartate, each organ concentration over time, the area under the corresponding time-concentration curve, and the ratio of permeation into tissue were shown in Tables 5 and 6.
Then, P ratio is a ratio of permeation into muscle and calculated as intramuscular AUC/intraplasmic AUC.

[7] = Stability test in distilled water; type: physicochemical; conditions: 30 mg in 100 ml distilled water
[8] = male, testicle, ICR mice, p.o. 100 mg/kg, read-out: Testicle concentration
[9] = brain, ICR mice, p.o. 100 mg/kg, read-out: Brain concentration
[10] = heart, ICR mice, p.o. 100 mg/kg, read-out: Heart concentration
[11] = kidney, ICR mice, p.o. 100 mg/kg, read-out: Kidney concentration
[12] = liver, ICR mice, p.o. 100 mg/kg, read-out: Liver concentration
[13] = lung, ICR mice, p.o. 100 mg/kg, read-out: Lung concentration
[14] = muscle, ICR mice, p.o. 100 mg/kg, read-out: Muscle concentration
[15] = plasma, ICR mice, p.o. 100 mg/kg, read-out: Plasma concentration
[16] = spleen, ICR mice, p.o. 100 mg/kg, read-out: Spleen concentration
[17] = testicle, ICR mice, p.o. 100 mg/kg, read-out: Testicle concentration
[18] = thymus, ICR mice, p.o. 100 mg/kg, read-out: Thymus concentration

CON=C1CN(c2nc3c(cc2F)c(=O)c(C(=O)O)cn3C2CC2)C[C@@]1(C)CN.Cl [Hydrochloride (Comparative Example 3)]
MNPCE number [1]: singificantly increase
solubility [2]: 93.3 mg/mL
Lethal dose 50 [3]: 176 mg/kg
Kp [4]: 8.66
AUC(0-t) ([5]; iv, i.v. 10 mg/kg): 8720 ± 330 ng·h/mL
Cmax ([5]; iv, i.v. 10 mg/kg): 4460 ± 960 ng/mL
Tmax ([5]; iv, i.v. 10 mg/kg): 0 h
AUC(0-t) ([5]; po, p.o. 100 mg/kg): 44400 ± 21400 ng·h/mL
Cmax ([5]; po, p.o. 100 mg/kg): 7620 ± 3930 ng/mL
Tmax ([5]; po, p.o. 100 mg/kg): 2.13 ± 1.97 h
BA (%) ([5]; p.o. 100 mg/kg, calculated by ratio of AUC0-t): 50.96%
Kp ([6]; brain, read-out: P ratio Brain): 0.27
Kp ([6]; heart, read-out: P ratio Heart): 4.19
Kp ([6]; kidney, read-out: P ratio Kidney): 6.59
Kp ([6]; liver, read-out: P ratio Liver): 10.5
Kp ([6]; lung, read-out: P ratio Lung): 5.59
Kp ([6]; muscle, read-out: P ratio Muscle): 3.92
Kp ([6]; thymus, read-out: P ratio Thymus): 4.83
Kp ([6]; male, testicle, read-out: P ratio Testicle): 1.7
concentration at 0.5 h [6, 8]: 4790 ng/g
concentration at 1 h [6, 8]: 8360 ng/g
concentration at 8 h [6, 8]: 7770 ng/g
concentration at 0.5 h [6, 9]: 2510 ng/g
concentration at 1 h [6, 9]: 3090 ng/g
concentration at 1.5 h [6, 9]: 2720 ng/g
concentration at 2 hr [6, 9]: 3180 ng/g
concentration at 3 h [6, 9]: 1990 ng/g
concentration at 5 h [6, 9]: 1600 ng/g
concentration at 8 h [6, 9]: 730 ng/g
concentration at 0.5 h [6, 10]: 59300 ng/g
concentration at 1 h [6, 10]: 61200 ng/g
concentration at 1.5 hr [6, 10]: 52700 ng/g
concentration at 2 hr [6, 10]: 57600 ng/g
concentration at 3 h [6, 10]: 25500 ng/g
concentration at 5 h [6, 10]: 17300 ng/g
concentration at 8 h [6, 10]: 8860 ng/g
concentration at 0.5 h [6, 11]: 90800 ng/g
concentration at 1 h [6, 11]: 87800 ng/g
concentration at 1.5 h [6, 11]: 75500 ng/g
concentration at 2 hr [6, 11]: 69900 ng/g
concentration at 3 h [6, 11]: 43000 ng/g
concentration at 5 h [6, 11]: 32800 ng/g
concentration at 8 h [6, 11]: 18000 ng/g
concentration at 0.5 h [6, 12]: 161000 ng/g
concentration at 1 h [6, 12]: 125000 ng/g
concentration at 1.5 h [6, 12]: 113000 ng/g
concentration at 2 hr [6, 12]: 109000 ng/g
concentration at 3 h [6, 12]: 69000 ng/g
concentration at 5 h [6, 12]: 55700 ng/g
concentration at 8 h [6, 12]: 27000 ng/g
concentration at 0.5 h [6, 13]: 82800 ng/g
concentration at 1 h [6, 13]: 79500 ng/g
concentration at 1.5 h [6, 13]: 73600 ng/g
concentration at 2 hr [6, 13]: 63700 ng/g
concentration at 3 h [6, 13]: 38800 ng/g
concentration at 5 h [6, 13]: 23400 ng/g
concentration at 8 h [6, 13]: 11400 ng/g
concentration at 0.5 h [6, 14]: 39800 ng/g
concentration at 1 h [6, 14]: 52000 ng/g
concentration at 1.5 h [6, 14]: 50400 ng/g
concentration at 2 hr [6, 14]: 50800 ng/g
concentration at 3 h [6, 14]: 28300 ng/g
concentration at 5 h [6, 14]: 18400 ng/g
concentration at 8 h [6, 14]: 8260 ng/g
concentration at 0.5 h [6, 15]: 15500 ng/mL
concentration at 1 h [6, 15]: 14200 ng/mL
concentration at 1.5 h [6, 15]: 12100 ng/mL
concentration at 2 hr [6, 15]: 12000 ng/mL
concentration at 3 h [6, 15]: 6240 ng/mL
concentration at 5 h [6, 15]: 4320 ng/mL
concentration at 8 h [6, 15]: 2290 ng/mL
AUC(0-t) ([6]; plasma, ICR mice, p.o. 100 mg/kg, read-out: AUC0-t Plasma): 53600 ng·h/mL
concentration at 0.5 h [6, 16]: 102000 ng/g
concentration at 1 h [6, 16]: 112000 ng/g
concentration at 1.5 hr [6, 16]: 107000 ng/g
concentration at 2 hr [6, 16]: 102000 ng/g
concentration at 3 h [6, 16]: 59800 ng/g
concentration at 5 h [6, 16]: 42100 ng/g
concentration at 8 h [6, 16]: 21500 ng/g
concentration at 1.5 hr [6, 17]: 12700 ng/g
concentration at 2 hr [6, 17]: 17000 ng/g
concentration at 3 h [6, 17]: 14200 ng/g
concentration at 5 h [6, 17]: 12900 ng/g
concentration at 0.5 h [6, 18]: 24600 ng/g
concentration at 1 h [6, 18]: 58000 ng/g
concentration at 1.5 hr [6, 18]: 60800 ng/g
concentration at 2 hr [6, 18]: 61300 ng/g
concentration at 3 h [6, 18]: 38400 ng/g
concentration at 5 h [6, 18]: 25700 ng/g
concentration at 8 h [6, 18]: 12800 ng/g
Content (%) 60? (after 3 weeks) ([7]; 60?, 3 weeks): 90.0%
Content (%) Initial ([7]; initial): 97.9%
Content (%) Room temperature (after 3 weeks) ([7]; room temperature, 3 weeks): 98.0%
